This note sets out measurements from patent US7381739B2, “2,4-substituted indoles and methods of use” (Roche Palo Alto LLC, priority 2002, dated 2008).

In the first assay the target is T1, recombinant human 5-HT6 receptor (Homo sapiens, UniProt P50406).
T1 construct: expressed in transfected cells
T1 sequence (P50406 whole entry): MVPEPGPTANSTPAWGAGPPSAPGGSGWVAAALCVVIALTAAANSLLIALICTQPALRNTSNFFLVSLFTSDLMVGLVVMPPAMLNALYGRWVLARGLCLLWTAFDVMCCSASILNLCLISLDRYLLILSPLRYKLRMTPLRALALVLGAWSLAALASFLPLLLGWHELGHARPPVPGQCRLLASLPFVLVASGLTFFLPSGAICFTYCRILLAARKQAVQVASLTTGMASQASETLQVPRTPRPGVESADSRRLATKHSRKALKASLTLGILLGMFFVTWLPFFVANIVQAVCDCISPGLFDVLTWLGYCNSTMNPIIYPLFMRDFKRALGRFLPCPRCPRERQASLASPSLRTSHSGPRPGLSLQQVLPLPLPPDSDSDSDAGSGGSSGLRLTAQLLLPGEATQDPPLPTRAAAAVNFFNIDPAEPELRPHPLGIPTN
The assay can be described thus: in vitro radioligand binding, [3H]LSD competition in HEK293 cell membranes.
Conditions: not given
On the procedure: The binding activity of compounds of this invention in vitro was determined as follows. Duplicate determinations of ligand affinity are made by competing for binding of [^3H]LSD in cell membranes derived from HEK293 cells stably expressing recombinant human 5-HT6 receptor.
All determinations were made in assay buffer containing 50 mM Tris-HCl, 10 mM MgSO4, 0.5 mM EDTA, 1 mM ascorbic acid, pH 7.4 at 37° C., in a 250 microliter reaction volume. Assay tubes containing [^3H] LSD (5 nM), competing ligand, and membrane were incubated in a shaking water bath for 60 min. at 37° C., filtered onto Packard GF-B plates (pre-soaked with 0.3% PEI) using a Packard 96 well cell harvester and washed 3 times in ice cold 50 mM Tris-HCl. Bound [^3H] LSD was determined as radioactive counts per minute using Packard TopCount.
Displacement of [3H]LSD from the binding sites was quantified by fitting concentration-binding data to a 4-parameter logistic equation:
[formula] where Hill is the Hill slope, [ligand] is the concentration of competing radioligand and IC50 is the concentration of radioligand producing half-maximal specific binding of radioligand. The specific binding window is the difference between the Bmax and the basal parameters.
Regarding `Cn1c(S(=O)(=O)c2cccc(Br)c2)cc2c(N3CCNCC3)cccc21` [Compound 14, 2-(3-Bromo-benzenesulfonyl)-1-methyl-4-piperazin-1-yl-1H-indole], the Ki is 501 pM. `Cn1c(S(=O)(=O)c2ccccc2)cc2c(N3CCNCC3)cccc21` [Compound 5, 2-Benzenesulfonyl-1-methyl-4-piperazin-1-yl-1H-indole]: the Ki is 200 pM.

The same assay, now with this note: [3H]LSD (5 nM) displacement, membranes of HEK293 cells stably expressing recombinant human 5-HT6 receptor, pH 7.4, 37° C., 60 min; read-out: pKi (converted).
In the case of `CN1CCN(c2cccc3[nH]c(S(=O)(=O)c4ccccc4F)cc23)CC1` [Compound 12, 2-(2-Fluoro-benzenesulfonyl)-4-(4-methyl-piperazin-1-yl)-1H-indole], the Ki is 126 pM. Regarding `CC1CN(c2cccc3[nH]c(S(=O)(=O)c4ccccc4)cc23)CC(C)N1` (stereo not drawn) [Compound 9, 2-Benzenesulfonyl-4-(3,5-dimethyl-piperazin-1-yl)-1H-indole], the Ki is 794 pM. The same measure, in the same setting: the same measure for `O=S(=O)(c1ccccc1)c1cc2c(C3CCNCC3)cccc2[nH]1` [Compound 15, 2-Benzenesulfonyl-4-piperidin-4-yl-1H-indole]: 631 pM; for `CN1CCN(c2cccc3[nH]c(S(=O)(=O)c4ccccc4)cc23)CC1` [Compound 2, 2-Benzenesulfonyl-4-(4-methyl-piperazin-1-yl)-1H-indole]: 126 pM.
